{"source": "patent US11401264B2", "about": "“Heterocyclic compound” (Orizuru Therapeutics, Inc., priority 2018, dated 2022)", "tested_on": "cardiomyocytes from double knock-in human iPS cell lines (mCherry at TNNI3 locus)", "test": "Experimental Example 1: mCherry (TNNI3 reporter) immunostaining measured by high contents screening", "assay_type": "cell-based", "parameters": "key to average fluorescent intensity (at 30 μM): —: The symbol in Table 2 means that the average fluorescent intensity cannot be evaluated due to cell decrease", "conditions": "read on 8th day, Alexa 647 anti-mCherry, control well 797; for average fluorescent intensity (at 1 μM): test compound 1 μM added on 3rd and 6th culture days; for average fluorescent intensity (at 30 μM): test compound 30 μM added on 3rd and 6th culture days", "method": "For detection of cardiomyocyte maturation, double knock-in human iPS cell lines, in which reporter protein sequences, EmGFP (Sequence Number 1) and mCherry (Sequence Number 2) were inserted into gene loci for TNNI1 and TNNI3, respectively, were prepared (the human iPS cells were prepared from episomal vector (loaded gene; OCT3/4, KLF4, SOX2, L-MYC, LIN28, mouse p53DD) using PBMC (LP_167, Sample ID: 20130318) purchased from CTL (reference literature; Okita K, et al. Stem Cells. 2012 Nov. 29. doi: 10.1002/stem.1293)).\nThe maintenance culture of the above-mentioned reporter iPS cell lines was carried out by a conventional method (Okita K, et al. Stem Cells. 2012 Nov. 29. doi: 10.1002/stem.1293).\nFor differentiation induction into cardiomyocytes, the reporter iPS cell lines were treated with 0.5×TrypLE select (Life Technologies, diluted in 1/2 with 0.5 mM EDTA/PBS) for 4 to 5 minutes, and the cells were exfoliated using a cell scraper (IWAKI), and then dissociated into the single cell by pipetting. The medium was removed by centrifugation (1,000 rpm, 5 min), and the obtained cells were seeded on a bioreactor (ABLE) by 1×10^7 cells per 30 mL of the bioreactor, and then cultured in a medium prepared by adding 1% L-glutamine, transferrin 150 μg/mL, ascorbic acid 50 μg/mL (Sigma), monothioglycerol 4×10^−4 M, 10 μM Rock inhibitor (Y-27632), 2 ng/mL BMP4 (R&D) and 0.5% Matrigel (Growth Factor Reduced) to a medium after removal of solution C from StemFit AK02 (AJINOMOTO AK02, 400 mL of solution A and 100 mL of B solution, total 500 mL), at 37° C., under 5% oxygen condition (55 rpm, stirred suspension culture method) to form embryoid bodies (0 day).\nNext day (1st day), 9 μL (final concentration 3 ng/mL) of 10 μg/mL activin A, 15 μL (final concentration 5 ng/mL) of 10 μg/mL bFGF and […] (final concentration 10 ng/mL) of 10 μg/mL BMP4 were added to the bioreactor, and the cells were cultured at 37° C. for additional 2 days, under 5% oxygen condition.\nThen (3rd day), the obtained embryoid bodies were collected in a 50 mL centrifuge tube, and then subjected to centrifugation (200 g, 1 min). The medium was removed, and the embryoid bodies were cultured in a medium prepared by adding 1% L-glutamine, transferrin 150 μg/mL, ascorbic acid 50 μg/mL (Sigma), monothioglycerol 4×10^−4 M, 10 ng/mL VEGF, 1 μM IWP-3, 0.6 μM dorsomorphin and 5.4 μM SB431542 to a medium after removal of solution C from StemFit AK02 (AJINOMOTO AK02, 400 mL of solution A and 100 mL of B solution, total 500 mL), at 37° C. for 3 days, under 5% oxygen condition (55 rpm, stirred suspension culture method).\nThen (6th day), the bioreactor was left to stand to precipitate the embryoid bodies, and 80 to 90% of the medium was removed. A medium prepared by adding 1% L-glutamine, transferrin 150 μg/mL, ascorbic acid 50 μg/mL (Sigma), monothioglycerol […] and 5 ng/mL VEGF to a medium after removal of solution C from StemFit AK02 (AJINOMOTO AK02, 400 mL of solution A and 100 mL of B solution, total 500 mL) was added to the bioreactor so that the total volume became 30 mL, and the embryoid bodies were cultured for 8 days, at 37° C., under 5% oxygen condition (55 rpm, stirred suspension culture method). During the culture, the medium was replaced with a medium under the same conditions every 2 to 3 days.\n14th Day after the start of the differentiation induction, the embryoid bodies were treated with 2 mg/mL collagenase type I (Sigma) for 2 hr, and then with 0.25% trypsin/EDTA (Invitrogen) for 10 min. 50% FBS/IMDM (Thermo Fisher Science) was added thereto, and the embryoid bodies were dissociated into the single cell by pipetting, and then subjected to centrifugation (1,000 rpm, 5 minutes). […]", "data": [{"smiles": "CCOc1ccc(-c2nc3cc(N4Cc5cc(N6CCOCC6)ccc5C4=O)ccc3n2C)cc1", "note": "[Example 59, 2-(2-(4-ethoxyphenyl)-1-methyl-1H-benzimidazol-5-yl)-5-(morpholin-4-yl)isoindolin-1-one]", "values": [{"measurement": "average fluorescent intensity (at 1 μM)", "value": 803}, {"measurement": "average fluorescent intensity (at 30 μM)", "value": 1301}]}, {"smiles": "CCOc1ccc(-c2nc3cc(N4Cc5cc(N6CCCCC6)ccc5C4=O)ccc3[nH]2)cc1", "note": "[Example 65, 2-(2-(4-ethoxyphenyl)-1H-benzimidazol-5-yl)-5-(piperidin-1-yl)isoindolin-1-one]", "values": [{"measurement": "average fluorescent intensity (at 1 μM)", "value": 1245}, {"measurement": "average fluorescent intensity (at 30 μM)", "value": 836}]}, {"smiles": "O=C(COc1ccc(-c2nc3cc(N4Cc5cc(N6CCOCC6)ccc5C4=O)ccc3[nH]2)cc1)N1CCCCC1", "note": "[Example 33, 5-(morpholin-4-yl)-2-(2-(4-(2-oxo-2-(piperidin-1-yl)ethoxy)phenyl)-1H-benzimidazol-5-yl)isoindolin-1-one]", "values": [{"measurement": "average fluorescent intensity (at 1 μM)", "value": 1568}, {"measurement": "average fluorescent intensity (at 30 μM)", "value": 3010}]}, {"smiles": "COc1ccc(-c2nc3cc(N4Cc5cc(Br)ccc5C4=O)ccc3[nH]2)cc1", "note": "[Example 70, 5-bromo-2-(2-(4-methoxyphenyl)-1H-benzimidazol-5-yl)isoindolin-1-one]", "values": [{"measurement": "average fluorescent intensity (at 1 μM)", "value": 998}, {"measurement": "average fluorescent intensity (at 30 μM)", "value": 4335}]}, {"smiles": "CCOc1ccc(-c2nc3cc(N4Cc5cc(N6CCOCC6)ccc5C4=O)ccc3[nH]2)cc1", "note": "[Example 72, 2-(2-(4-ethoxyphenyl)-1H-benzimidazol-5-yl)-5-(morpholin-4-yl)isoindolin-1-one]", "values": [{"measurement": "average fluorescent intensity (at 1 μM)", "value": 1370}, {"measurement": "average fluorescent intensity (at 30 μM)", "value": 948}]}, {"smiles": "CN(C)C(=O)C(NC(=O)COc1ccc(-c2nc3cc(N4Cc5cc(N6CCCCC6)ccc5C4=O)ccc3[nH]2)cc1)c1ccccc1", "note": "(stereo not shown) [Example 13, N,N-dimethyl-2-(((4-(5-(1-oxo-5-(piperidin-1-yl)-1,3-dihydro-2H-isoindol-2-yl)-1H-benzimidazol-2-yl)phenoxy)acetyl)amino)-2-phenylacetamide]", "values": [{"measurement": "average fluorescent intensity (at 1 μM)", "value": 1212}, {"measurement": "average fluorescent intensity (at 30 μM)", "value": "—"}]}, {"smiles": "CC(C)NC(=O)COc1ccc(-c2nc3cc(N4Cc5cc(N6CCOCC6)ccc5C4=O)ccc3[nH]2)cc1", "note": "[Example 29, N-isopropyl-2-(4-(5-(5-(morpholin-4-yl)-1-oxo-1,3-dihydro-2H-isoindol-2-yl)-1H-benzimidazol-2-yl)phenoxy)acetamide]", "values": [{"measurement": "average fluorescent intensity (at 1 μM)", "value": 1120}, {"measurement": "average fluorescent intensity (at 30 μM)", "value": 910}]}, {"smiles": "COC(=O)COc1ccc(-c2nc3cc(N4Cc5cc(N6CCOCC6)ccc5C4=O)ccc3[nH]2)cc1", "note": "[Example 50, methyl (4-(5-(5-(morpholin-4-yl)-1-oxo-1,3-dihydro-2H-isoindol-2-yl)-1H-benzimidazol-2-yl)phenoxy)acetate]", "values": [{"measurement": "average fluorescent intensity (at 1 μM)", "value": 1126}, {"measurement": "average fluorescent intensity (at 30 μM)", "value": 1717}]}, {"smiles": "CCOc1ccc(-c2nc3cc(N4Cc5cc(N6CCN(C)CC6)ccc5C4=O)ccc3[nH]2)cc1", "note": "[Example 62, 2-(2-(4-ethoxyphenyl)-1H-benzimidazol-5-yl)-5-(4-methylpiperazin-1-yl)isoindolin-1-one]", "values": [{"measurement": "average fluorescent intensity (at 1 μM)", "value": 1004}, {"measurement": "average fluorescent intensity (at 30 μM)", "value": "—"}]}, {"smiles": "CCOc1ccc(-c2nc3ccc(N4Cc5cc(N6CCOCC6)ccc5C4=O)cc3n2C)cc1", "note": "[Example 60, 2-(2-(4-ethoxyphenyl)-1-methyl-1H-benzimidazol-6-yl)-5-(morpholin-4-yl)isoindolin-1-one]", "values": [{"measurement": "average fluorescent intensity (at 1 μM)", "value": 770}, {"measurement": "average fluorescent intensity (at 30 μM)", "value": 868}]}, {"smiles": "O=C1c2ccc(N3CCCCC3)cc2CN1c1ccc2[nH]c(C3CCNCC3)nc2c1", "note": "[Example 39, 5-(piperidin-1-yl)-2-(2-(piperidin-4-yl)-1H-benzimidazol-5-yl)isoindolin-1-one]", "values": [{"measurement": "average fluorescent intensity (at 1 μM)", "value": 1042}, {"measurement": "average fluorescent intensity (at 30 μM)", "value": 1026}]}, {"smiles": "O=C1c2ccc(N3CCOCC3)cc2CN1c1ccc2[nH]c(-c3ccc(F)cc3)nc2c1", "note": "[Example 67, 2-(2-(4-fluorophenyl)-1H-benzimidazol-5-yl)-5-(morpholin-4-yl)isoindolin-1-one]", "values": [{"measurement": "average fluorescent intensity (at 1 μM)", "value": 1367}, {"measurement": "average fluorescent intensity (at 30 μM)", "value": 1188}]}, {"smiles": "CCOc1ccc(-c2nc3cc(N4Cc5cc(N(CC)CC)ccc5C4=O)ccc3[nH]2)cc1", "note": "[Example 64, 5-(diethylamino)-2-(2-(4-ethoxyphenyl)-1H-benzimidazol-5-yl)isoindolin-1-one]", "values": [{"measurement": "average fluorescent intensity (at 1 μM)", "value": 1328}, {"measurement": "average fluorescent intensity (at 30 μM)", "value": "—"}]}, {"smiles": "COc1ccc(-c2nc3cc(N4Cc5cc(N6CCOCC6)ccc5C4=O)ccc3[nH]2)cc1", "note": "[Example 69, 2-(2-(4-methoxyphenyl)-1H-benzimidazol-5-yl)-5-(morpholin-4-yl)isoindolin-1-one]", "values": [{"measurement": "average fluorescent intensity (at 1 μM)", "value": 1222}, {"measurement": "average fluorescent intensity (at 30 μM)", "value": 1942}]}, {"smiles": "O=C(COc1ccc(-c2nc3cc(N4Cc5cc(N6CCCCC6)ccc5C4=O)ccc3[nH]2)cc1)NCCCc1ccccc1", "note": "[Example 24, 2-(4-(5-(1-oxo-5-(piperidin-1-yl)-1,3-dihydro-2H-isoindol-2-yl)-1H-benzimidazol-2-yl)phenoxy)-N-(3-phenylpropyl)acetamide]", "values": [{"measurement": "average fluorescent intensity (at 1 μM)", "value": 1241}, {"measurement": "average fluorescent intensity (at 30 μM)", "value": "—"}]}, {"smiles": "CCCOc1ccc(-c2nc3cc(N4Cc5cc(N6CCOCC6)ccc5C4=O)ccc3[nH]2)cc1", "note": "[Example 58, 5-(morpholin-4-yl)-2-(2-(4-propoxyphenyl)-1H-benzimidazol-5-yl)isoindolin-1-one]", "values": [{"measurement": "average fluorescent intensity (at 1 μM)", "value": 994}, {"measurement": "average fluorescent intensity (at 30 μM)", "value": 819}]}, {"smiles": "O=C(COc1ccc(-c2nc3cc(N4Cc5cc(N6CCOCC6)ccc5C4=O)ccc3[nH]2)cc1)NCc1ccccc1", "note": "[Example 36, N-benzyl-2-(4-(5-(5-(morpholin-4-yl)-1-oxo-1,3-dihydro-2H-isoindol-2-yl)-1H-benzimidazol-2-yl)phenoxy)acetamide]", "values": [{"measurement": "average fluorescent intensity (at 1 μM)", "value": 1006}, {"measurement": "average fluorescent intensity (at 30 μM)", "value": 1743}]}, {"smiles": "O=C1c2ccc(N3CCCCC3)cc2CN1c1ccc2[nH]c(C3CCOCC3)nc2c1", "note": "[Example 43, 5-(piperidin-1-yl)-2-(2-(tetrahydro-2H-pyran-4-yl)-1H-benzimidazol-5-yl)isoindolin-1-one]", "values": [{"measurement": "average fluorescent intensity (at 1 μM)", "value": 1087}, {"measurement": "average fluorescent intensity (at 30 μM)", "value": 1153}]}, {"smiles": "O=C1c2ccc(N3CCCCC3)cc2CN1c1ccc2[nH]c(-c3ccccc3)nc2c1", "note": "[Example 1, 2-(2-phenyl-1H-benzimidazol-5-yl)-5-(piperidin-1-yl)isoindolin-1-one]", "values": [{"measurement": "average fluorescent intensity (at 1 μM)", "value": 1098}, {"measurement": "average fluorescent intensity (at 30 μM)", "value": "—"}]}, {"smiles": "O=C(COc1ccc(-c2nc3cc(N4Cc5cc(N6CCCCC6)ccc5C4=O)ccc3[nH]2)cc1)Nc1ccccc1F", "note": "[Example 20, N-(2-fluorophenyl)-2-(4-(5-(1-oxo-5-(piperidin-1-yl)-1,3-dihydro-2H-isoindol-2-yl)-1H-benzimidazol-2-yl)phenoxy)acetamide]", "values": [{"measurement": "average fluorescent intensity (at 1 μM)", "value": 1685}]}, {"smiles": "COc1ccc(-c2nc3cc(N4Cc5cc(N6CCCCC6)ccc5C4=O)ccc3[nH]2)cc1", "note": "[Example 68, 2-(2-(4-methoxyphenyl)-1H-benzimidazol-5-yl)-5-(piperidin-1-yl)isoindolin-1-one]", "values": [{"measurement": "average fluorescent intensity (at 1 μM)", "value": 1301}]}]}
